Test results from the kinase profiling compilation of Christmann-Franck et al. (2016).

Key:
Experiment in all cases: KINOMEscan competition binding
ACVR2B (human) = ACVR2B (human) (UniProt Q13705)
AKT2 (human) = AKT2 (human) (UniProt P31751)
AKT3 (human) = AKT3 (human) (UniProt Q9Y243)
ALK (human) = ALK (human) (UniProt Q9UM73)
BMP2K (human) = BMP2K (human) (UniProt Q9NSY1)
BRSK1 (human) = BRSK1 (human) (UniProt Q8TDC3)
BTK (human) = BTK (human) (UniProt Q06187)
CDK18 (human) = CDK18 (human) (UniProt Q07002)
CDK2 (human) = CDK2 (human) (UniProt P24941)
CDKL5 (human) = CDKL5 (human) (UniProt O76039)
CIT (human) = CIT (human) (UniProt O14578)
DCLK2 (human) = DCLK2 (human) (UniProt Q8N568)
DDR2 (human) = DDR2 (human) (UniProt Q16832)
DYRK1A (human) = DYRK1A (human) (UniProt Q13627)
DYRK1B (human) = DYRK1B (human) (UniProt Q9Y463)
[1] = system: EGFR (human), P00533 [752-759 del]
[2] = system: EIF2AK4 KD2 (human), Q9P2K8 [S808G]
EPHB3 (human) = EPHB3 (human) (UniProt P54753)
FGFR1 (human) = FGFR1 (human) (UniProt P11362)
[3] = biological target: JAK2 JH1 catalytic (human) (UniProt O60674)
LATS1 (human) = LATS1 (human) (UniProt O95835)
LIMK2 (human) = LIMK2 (human) (UniProt P53671)
LYN (human) = LYN (human) (UniProt P07948)
MAP2K5 (human) = MAP2K5 (human) (UniProt Q13163)
MAPK10 (human) = MAPK10 (human) (UniProt P53779)
MAPK11 (human) = MAPK11 (human) (UniProt Q15759)
MATK (human) = MATK (human) (UniProt P42679)
MINK1 (human) = MINK1 (human) (UniProt Q8N4C8)
MYLK2 (human) = MYLK2 (human) (UniProt Q9H1R3)
NEK2 (human) = NEK2 (human) (UniProt P51955)
NUAK2 (human) = NUAK2 (human) (UniProt Q9H093)
OXSR1 (human) = OXSR1 (human) (UniProt O95747)
[4] = system: PIK3CA (human), P42336 [H1047Y]
PIK3CG (human) = PIK3CG (human) (UniProt P48736)
PIM2 (human) = PIM2 (human) (UniProt Q9P1W9)
PLK1 (human) = PLK1 (human) (UniProt P53350)
SBK1 (human) = SBK1 (human) (UniProt Q52WX2)
SIK2 (human) = SIK2 (human) (UniProt Q9H0K1)
STK36 (human) = STK36 (human) (UniProt Q9NRP7)
TLK2 (human) = TLK2 (human) (UniProt Q86UE8)
TNK2 (human) = TNK2 (human) (UniProt Q07912)
ULK1 (human) = ULK1 (human) (UniProt O75385)

Chain of CIT (human) (O14578 whole entry, looked up): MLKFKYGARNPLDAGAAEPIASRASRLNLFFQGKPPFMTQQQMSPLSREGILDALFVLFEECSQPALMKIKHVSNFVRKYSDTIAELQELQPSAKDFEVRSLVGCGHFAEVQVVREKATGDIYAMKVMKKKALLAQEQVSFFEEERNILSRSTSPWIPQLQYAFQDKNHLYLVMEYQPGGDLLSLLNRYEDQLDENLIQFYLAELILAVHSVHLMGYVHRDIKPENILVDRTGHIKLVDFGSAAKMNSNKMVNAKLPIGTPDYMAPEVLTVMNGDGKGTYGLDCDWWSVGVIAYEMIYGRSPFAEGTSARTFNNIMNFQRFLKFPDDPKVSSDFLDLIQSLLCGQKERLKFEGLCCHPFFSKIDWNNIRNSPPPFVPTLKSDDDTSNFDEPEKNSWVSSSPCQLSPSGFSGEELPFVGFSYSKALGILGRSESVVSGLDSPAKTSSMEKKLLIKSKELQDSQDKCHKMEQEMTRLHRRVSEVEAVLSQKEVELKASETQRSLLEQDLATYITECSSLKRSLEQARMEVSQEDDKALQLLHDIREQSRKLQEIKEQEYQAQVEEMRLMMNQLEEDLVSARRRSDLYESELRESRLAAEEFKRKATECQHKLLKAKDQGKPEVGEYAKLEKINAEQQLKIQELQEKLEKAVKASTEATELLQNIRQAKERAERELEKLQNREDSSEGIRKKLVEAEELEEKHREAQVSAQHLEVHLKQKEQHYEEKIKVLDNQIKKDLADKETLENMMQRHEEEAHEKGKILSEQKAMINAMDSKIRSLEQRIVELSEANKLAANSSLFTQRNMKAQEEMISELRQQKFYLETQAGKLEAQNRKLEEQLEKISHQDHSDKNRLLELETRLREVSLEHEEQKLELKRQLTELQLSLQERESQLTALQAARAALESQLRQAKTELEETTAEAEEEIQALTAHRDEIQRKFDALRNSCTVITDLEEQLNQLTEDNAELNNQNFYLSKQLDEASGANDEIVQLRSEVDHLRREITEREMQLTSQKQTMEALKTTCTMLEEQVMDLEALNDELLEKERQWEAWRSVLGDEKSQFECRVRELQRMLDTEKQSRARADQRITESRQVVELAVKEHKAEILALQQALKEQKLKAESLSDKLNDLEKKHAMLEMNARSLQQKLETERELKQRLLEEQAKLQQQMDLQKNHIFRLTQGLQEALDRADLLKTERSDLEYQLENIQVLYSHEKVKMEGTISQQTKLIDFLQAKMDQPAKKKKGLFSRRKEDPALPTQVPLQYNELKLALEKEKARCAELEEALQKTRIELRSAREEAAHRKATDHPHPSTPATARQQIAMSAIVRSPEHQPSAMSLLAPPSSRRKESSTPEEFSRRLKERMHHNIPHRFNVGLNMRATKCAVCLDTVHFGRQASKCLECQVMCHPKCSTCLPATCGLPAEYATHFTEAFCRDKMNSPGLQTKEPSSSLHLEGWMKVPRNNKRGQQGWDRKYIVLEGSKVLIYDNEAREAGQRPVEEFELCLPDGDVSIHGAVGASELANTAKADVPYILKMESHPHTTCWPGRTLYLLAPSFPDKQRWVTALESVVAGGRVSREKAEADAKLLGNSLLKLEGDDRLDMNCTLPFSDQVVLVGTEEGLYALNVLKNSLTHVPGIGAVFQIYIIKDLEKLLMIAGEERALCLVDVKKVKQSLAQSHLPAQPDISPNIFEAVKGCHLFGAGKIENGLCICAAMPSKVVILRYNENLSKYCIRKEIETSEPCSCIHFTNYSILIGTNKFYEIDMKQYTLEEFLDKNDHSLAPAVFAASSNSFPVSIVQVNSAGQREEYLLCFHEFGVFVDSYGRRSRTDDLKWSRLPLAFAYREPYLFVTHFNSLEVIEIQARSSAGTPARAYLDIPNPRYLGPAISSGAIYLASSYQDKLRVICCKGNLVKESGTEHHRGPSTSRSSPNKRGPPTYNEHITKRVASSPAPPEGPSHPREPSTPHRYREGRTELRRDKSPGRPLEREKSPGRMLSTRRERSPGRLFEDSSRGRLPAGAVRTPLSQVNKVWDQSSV
Chain of MAPK10 (human) (P53779 whole entry, looked up): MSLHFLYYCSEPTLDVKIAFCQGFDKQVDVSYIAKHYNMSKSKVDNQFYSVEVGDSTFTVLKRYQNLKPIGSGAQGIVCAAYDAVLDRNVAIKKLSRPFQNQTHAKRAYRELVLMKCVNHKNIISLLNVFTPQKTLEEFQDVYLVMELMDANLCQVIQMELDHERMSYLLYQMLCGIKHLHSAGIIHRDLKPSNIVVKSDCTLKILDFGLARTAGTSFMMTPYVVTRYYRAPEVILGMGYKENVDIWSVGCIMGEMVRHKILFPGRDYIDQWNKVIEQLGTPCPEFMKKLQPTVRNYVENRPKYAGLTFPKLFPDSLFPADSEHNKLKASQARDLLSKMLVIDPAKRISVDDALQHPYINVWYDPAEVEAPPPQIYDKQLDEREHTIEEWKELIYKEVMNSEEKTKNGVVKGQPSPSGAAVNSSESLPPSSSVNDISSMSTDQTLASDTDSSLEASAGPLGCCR
Chain of BMP2K (human) (Q9NSY1 whole entry, looked up): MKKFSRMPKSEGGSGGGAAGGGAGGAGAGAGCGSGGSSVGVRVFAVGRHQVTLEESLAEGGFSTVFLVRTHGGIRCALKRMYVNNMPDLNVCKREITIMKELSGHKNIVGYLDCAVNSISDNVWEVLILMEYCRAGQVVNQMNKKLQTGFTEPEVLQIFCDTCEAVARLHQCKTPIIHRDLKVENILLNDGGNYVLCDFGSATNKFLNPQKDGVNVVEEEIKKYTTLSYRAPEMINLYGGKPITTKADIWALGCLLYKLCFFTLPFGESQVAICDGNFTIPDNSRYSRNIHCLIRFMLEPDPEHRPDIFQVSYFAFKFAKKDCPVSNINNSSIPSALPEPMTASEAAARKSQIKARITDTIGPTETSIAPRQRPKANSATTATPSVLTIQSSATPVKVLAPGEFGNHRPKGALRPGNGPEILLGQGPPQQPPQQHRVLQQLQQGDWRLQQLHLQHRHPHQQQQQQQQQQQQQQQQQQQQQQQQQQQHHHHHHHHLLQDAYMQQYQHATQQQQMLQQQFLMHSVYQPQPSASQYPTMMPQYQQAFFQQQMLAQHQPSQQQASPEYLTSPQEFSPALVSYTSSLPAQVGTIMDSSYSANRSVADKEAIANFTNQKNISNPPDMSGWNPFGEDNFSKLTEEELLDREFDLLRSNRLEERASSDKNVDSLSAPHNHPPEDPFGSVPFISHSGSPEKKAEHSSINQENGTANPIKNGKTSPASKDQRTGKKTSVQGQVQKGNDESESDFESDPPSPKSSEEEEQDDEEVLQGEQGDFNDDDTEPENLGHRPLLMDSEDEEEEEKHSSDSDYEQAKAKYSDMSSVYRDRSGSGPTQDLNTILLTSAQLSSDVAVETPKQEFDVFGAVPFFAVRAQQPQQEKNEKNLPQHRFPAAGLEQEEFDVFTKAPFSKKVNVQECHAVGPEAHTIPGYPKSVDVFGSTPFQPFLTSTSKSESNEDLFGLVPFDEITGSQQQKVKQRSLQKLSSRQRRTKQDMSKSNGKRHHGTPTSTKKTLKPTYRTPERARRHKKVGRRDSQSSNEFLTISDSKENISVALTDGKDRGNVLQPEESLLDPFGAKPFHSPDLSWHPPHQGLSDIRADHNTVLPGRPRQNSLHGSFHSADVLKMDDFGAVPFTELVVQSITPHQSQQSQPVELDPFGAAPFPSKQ
Chain of SBK1 (human) (Q52WX2 whole entry, looked up): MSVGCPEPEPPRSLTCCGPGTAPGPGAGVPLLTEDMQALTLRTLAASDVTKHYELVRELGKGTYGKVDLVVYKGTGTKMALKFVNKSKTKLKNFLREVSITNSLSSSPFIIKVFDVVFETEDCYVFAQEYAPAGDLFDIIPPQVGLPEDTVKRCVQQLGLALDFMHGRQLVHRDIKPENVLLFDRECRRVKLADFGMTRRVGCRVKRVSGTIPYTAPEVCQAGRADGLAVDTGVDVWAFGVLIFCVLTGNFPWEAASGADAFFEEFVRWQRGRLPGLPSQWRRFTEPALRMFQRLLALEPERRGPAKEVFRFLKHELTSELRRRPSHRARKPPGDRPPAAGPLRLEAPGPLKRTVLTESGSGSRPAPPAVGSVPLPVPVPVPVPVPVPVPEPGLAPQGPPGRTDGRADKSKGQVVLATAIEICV
Chain of MAPK11 (human) (Q15759 whole entry, looked up): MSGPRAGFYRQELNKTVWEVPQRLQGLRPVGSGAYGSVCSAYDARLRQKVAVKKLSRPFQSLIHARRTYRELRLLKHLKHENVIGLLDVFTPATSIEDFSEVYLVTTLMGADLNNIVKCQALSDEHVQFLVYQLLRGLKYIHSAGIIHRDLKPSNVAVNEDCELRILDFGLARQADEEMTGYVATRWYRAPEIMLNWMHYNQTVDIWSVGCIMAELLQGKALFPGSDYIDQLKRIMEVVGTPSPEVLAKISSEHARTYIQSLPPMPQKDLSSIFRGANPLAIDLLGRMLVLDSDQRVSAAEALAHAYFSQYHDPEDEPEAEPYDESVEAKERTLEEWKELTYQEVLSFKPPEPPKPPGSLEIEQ
Chain of AKT2 (human) (P31751 whole entry, looked up): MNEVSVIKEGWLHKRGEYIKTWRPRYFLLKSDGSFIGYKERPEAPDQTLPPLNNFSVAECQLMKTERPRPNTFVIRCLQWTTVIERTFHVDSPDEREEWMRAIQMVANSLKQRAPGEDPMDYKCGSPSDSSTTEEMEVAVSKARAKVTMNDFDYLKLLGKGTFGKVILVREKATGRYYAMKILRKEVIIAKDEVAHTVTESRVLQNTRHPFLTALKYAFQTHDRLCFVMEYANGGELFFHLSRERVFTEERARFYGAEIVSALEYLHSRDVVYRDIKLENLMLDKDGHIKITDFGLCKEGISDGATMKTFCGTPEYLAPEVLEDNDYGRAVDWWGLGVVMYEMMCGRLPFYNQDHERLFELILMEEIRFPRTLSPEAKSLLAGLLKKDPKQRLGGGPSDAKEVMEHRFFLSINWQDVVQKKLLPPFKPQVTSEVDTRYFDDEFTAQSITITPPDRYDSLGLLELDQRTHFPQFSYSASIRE

Cc1ccc(NC(=O)c2ccc(NC(=O)/C=C/CN(C)C)cc2)cc1Nc1nccc(-c2cccnc2)n1
kinase still bound, per cent of control (ACVR2B (human); compound 10.0 µM): 84% | kinase still bound, per cent of control (AKT2 (human); compound 10.0 µM): 100% | kinase still bound, per cent of control (AKT3 (human); compound 10.0 µM): 100% | kinase still bound, per cent of control (ALK (human); compound 10.0 µM): 100% | kinase still bound, per cent of control (BMP2K (human); compound 10.0 µM): 88% | kinase still bound, per cent of control (BRSK1 (human); compound 10.0 µM): 53% | kinase still bound, per cent of control (BTK (human); compound 10.0 µM): 76% | kinase still bound, per cent of control (CDK18 (human); compound 10.0 µM): 85% | kinase still bound, per cent of control (CDK2 (human); compound 10.0 µM): 95% | kinase still bound, per cent of control (CDKL5 (human); compound 10.0 µM): 100% | kinase still bound, per cent of control (CIT (human); compound 10.0 µM): 59% | kinase still bound, per cent of control (DCLK2 (human); compound 10.0 µM): 100% | kinase still bound, per cent of control (DDR2 (human); compound 10.0 µM): 0.9% | kinase still bound, per cent of control (DYRK1A (human); compound 10.0 µM): 98% | kinase still bound, per cent of control (DYRK1B (human); compound 10.0 µM): 68% | kinase still bound, per cent of control ([1]; compound 10.0 µM): 54% | kinase still bound, per cent of control ([2]; compound 10.0 µM): 100% | kinase still bound, per cent of control (EPHB3 (human); compound 10.0 µM): 100% | kinase still bound, per cent of control (FGFR1 (human); compound 10.0 µM): 87% | kinase still bound, per cent of control ([3]; compound 10.0 µM): 39% | kinase still bound, per cent of control (LATS1 (human); compound 10.0 µM): 100% | kinase still bound, per cent of control (LIMK2 (human); compound 10.0 µM): 78% | kinase still bound, per cent of control (LYN (human); compound 10.0 µM): 54% | kinase still bound, per cent of control (MAP2K5 (human); compound 10.0 µM): 66% | Kd (MAPK10 (human)): 0.1 µM | kinase still bound, per cent of control (MAPK10 (human); compound 10.0 µM): 0.25% | kinase still bound, per cent of control (MAPK11 (human); compound 10.0 µM): 49% | kinase still bound, per cent of control (MATK (human); compound 10.0 µM): 45% | kinase still bound, per cent of control (MINK1 (human); compound 10.0 µM): 64% | kinase still bound, per cent of control (MYLK2 (human); compound 10.0 µM): 68% | kinase still bound, per cent of control (NEK2 (human); compound 10.0 µM): 100% | kinase still bound, per cent of control (NUAK2 (human); compound 10.0 µM): 69% | kinase still bound, per cent of control (OXSR1 (human); compound 10.0 µM): 82% | kinase still bound, per cent of control ([4]; compound 10.0 µM): 72% | kinase still bound, per cent of control (PIK3CG (human); compound 10.0 µM): 68% | kinase still bound, per cent of control (PIM2 (human); compound 10.0 µM): 100% | kinase still bound, per cent of control (PLK1 (human); compound 10.0 µM): 83% | kinase still bound, per cent of control (SBK1 (human); compound 10.0 µM): 77% | kinase still bound, per cent of control (SIK2 (human); compound 10.0 µM): 80% | kinase still bound, per cent of control (STK36 (human); compound 10.0 µM): 100% | kinase still bound, per cent of control (TLK2 (human); compound 10.0 µM): 100% | kinase still bound, per cent of control (TNK2 (human); compound 10.0 µM): 98% | kinase still bound, per cent of control (ULK1 (human); compound 10.0 µM): 23%

CN(C)C/C=C/C(=O)Nc1cccc(C(=O)Nc2ccc(Nc3nccc(-c4c(-c5ccccc5)nn5ccccc45)n3)cc2)c1
kinase still bound, per cent of control (ACVR2B (human); compound 1.0 µM): 9.6% | kinase still bound, per cent of control (AKT2 (human); compound 1.0 µM): 100% | kinase still bound, per cent of control (AKT3 (human); compound 1.0 µM): 80% | kinase still bound, per cent of control (ALK (human); compound 1.0 µM): 100% | kinase still bound, per cent of control (BMP2K (human); compound 1.0 µM): 100% | kinase still bound, per cent of control (BRSK1 (human); compound 1.0 µM): 86% | kinase still bound, per cent of control (BTK (human); compound 1.0 µM): 100% | kinase still bound, per cent of control (CDK18 (human); compound 1.0 µM): 95% | kinase still bound, per cent of control (CDK2 (human); compound 1.0 µM): 100% | kinase still bound, per cent of control (CDKL5 (human); compound 1.0 µM): 100% | Kd (CIT (human)): 0.095 µM | kinase still bound, per cent of control (CIT (human); compound 1.0 µM): 0.3% | kinase still bound, per cent of control (DCLK2 (human); compound 1.0 µM): 100% | kinase still bound, per cent of control (DDR2 (human); compound 1.0 µM): 9% | kinase still bound, per cent of control (DYRK1A (human); compound 1.0 µM): 90% | kinase still bound, per cent of control (DYRK1B (human); compound 1.0 µM): 100% | kinase still bound, per cent of control ([1]; compound 1.0 µM): 7.8% | kinase still bound, per cent of control ([2]; compound 1.0 µM): 76% | kinase still bound, per cent of control (EPHB3 (human); compound 1.0 µM): 86% | kinase still bound, per cent of control (FGFR1 (human); compound 1.0 µM): 80% | kinase still bound, per cent of control ([3]; compound 1.0 µM): 100% | kinase still bound, per cent of control (LATS1 (human); compound 1.0 µM): 95% | kinase still bound, per cent of control (LIMK2 (human); compound 1.0 µM): 100% | kinase still bound, per cent of control (LYN (human); compound 1.0 µM): 58% | kinase still bound, per cent of control (MAP2K5 (human); compound 1.0 µM): 23% | kinase still bound, per cent of control (MAPK10 (human); compound 1.0 µM): 0% | kinase still bound, per cent of control (MAPK11 (human); compound 1.0 µM): 6.6% | kinase still bound, per cent of control (MATK (human); compound 1.0 µM): 100% | kinase still bound, per cent of control (MINK1 (human); compound 1.0 µM): 46% | kinase still bound, per cent of control (MYLK2 (human); compound 1.0 µM): 100% | kinase still bound, per cent of control (NEK2 (human); compound 1.0 µM): 93% | kinase still bound, per cent of control (NUAK2 (human); compound 1.0 µM): 89% | kinase still bound, per cent of control (OXSR1 (human); compound 1.0 µM): 100% | kinase still bound, per cent of control ([4]; compound 1.0 µM): 93% | kinase still bound, per cent of control (PIK3CG (human); compound 1.0 µM): 84% | kinase still bound, per cent of control (PIM2 (human); compound 1.0 µM): 100% | kinase still bound, per cent of control (PLK1 (human); compound 1.0 µM): 100% | kinase still bound, per cent of control (SBK1 (human); compound 1.0 µM): 92% | kinase still bound, per cent of control (SIK2 (human); compound 1.0 µM): 42% | kinase still bound, per cent of control (STK36 (human); compound 1.0 µM): 2.2% | kinase still bound, per cent of control (TLK2 (human); compound 1.0 µM): 100% | kinase still bound, per cent of control (TNK2 (human); compound 1.0 µM): 100% | kinase still bound, per cent of control (ULK1 (human); compound 1.0 µM): 87%
